Experimental data from publication PMC8156206, “Novel N,N′-Disubstituted Selenoureas as Potential Antioxidant and Cytotoxic Agents” (Antioxidants, 2021).
Like-named read-outs stand apart in the source and are kept apart here.

Key:
[1] = system: HCT-116 cells (colon); experiment: MTT cell viability assay, HCT-116; assay type: cell-based; conditions: 48 h, MTT, mean ± SD, read-out: IC50 HCT-116 (colon)
Experimental: (§1) Cell lines were purchased from the American Type Culture Collection (ATCC). MCF-7, HTB-54, BEAS-2B and 184B5 cell lines were grown in RPMI 1640 medium (Gibco) supplemented with 10% fetal bovine serum (FBS; Gibco), 100 units/mL penicillin, and […] streptomycin (Gibco). HT-29 and HCT-116 cell lines was cultured in McCoy’s 5A (Gibco), 10% FBS, 100 units/mL penicillin, and 100 μg/mL streptomycin. Cells were maintained at 37 °C and 5% CO2. Culture medium was replaced every three days.
(§2) A cell viability assay of each compound was carried out using an MTT assay. Each selenourea was dissolved in dimethyl sulfoxide (DMSO) at a concentration of 0.01 M. Serial dilutions were prepared with non-supplemented culture medium. Cytotoxic activity of each selenourea was determined at two different concentrations (10 and 50 µM) in MCF-7, HTB-54, and HT-29 cells. In addition, selected compounds were tested at seven different concentrations (0.1, 1, 5, 10, 25, 50, 100 µM) on MCF-7, HT-29, HCT-116, HTB-54, 184B5, and BEAS-2B cells. The number of passages before defrosting the cells was 3, and they were kept under culture up to a maximum of 15.
(§3) Briefly, 1 × 10^4 cells/well were grown in 96-well plates for 24 h. Then, these cells were incubated with either DMSO (negative control) at 5 µM or a different concentration of each tested selenourea for 48 h. A volume of 20 µL of MTT was added 150 min before the termination point to measure cellular viability. After this time, culture medium was removed. The resultant formazan crystals were dissolved in 50 µL of DMSO, and absorbance was measured at 570 nm. Results are expressed as IC50, the half maximal inhibitory concentration. This value was calculated using GraphPad Prism 7 software by nonlinear curve fitting. Furthermore, the selectivity index (SI) was calculated as the ratio of the IC50 values determined for the non-malignant and the tumoral cells (IC50 (184B5)/IC50 (MCF-7) or (IC50 (BEAS-2B)/IC50 (HTB-54). Data were obtained from at least three independent experiments performed in triplicates.

[2] = system: MCF-7 cells (breast adenocarcinoma); conditions: cited from earlier work
[3] = system: HTB-54 cells (lung adenocarcinoma); parameters: method as in PMID 22397496; conditions: reference drug, literature value; cited from earlier work
[4] = system: HT-29 cells (colon carcinoma); parameters: method as in PMID 32801055; conditions: reference drug, literature value; cited from earlier work
[5] = system: 184B5 cells (breast non-malignant derived cell line); experiment: MTT cell viability assay, 184B5; assay type: cell-based; conditions: Homo sapiens, 184B5; 48 h, MTT, mean ± SD; read-out: IC50 184B5 (breast, non-malignant)
Experimental: as §1, §2, §3

[6] = system: HT-29 cells (colon carcinoma); experiment: MTT cell viability assay, HT-29; assay type: cell-based; conditions: Homo sapiens, 48 h, MTT; for IC50: HT-29, mean ± SD, read-out: IC50 HT-29 (colon); for viability at 10 µM: HT-29, 10 µM; for viability at 10 µM / viability at 50 µM: read-out: cell viability, percentage of live cells; for viability at 50 µM: HT-29, 50 µM
Experimental: as §1, §2, §3
(§4) The cytotoxic effects of synthesized compounds were evaluated against three human cancer cell lines: breast adenocarcinoma (MCF-7), lung adenocarcinoma (HTB-54), and colon carcinoma (HT-29), using a 3-[4,5-dimethylthiazol-2-yl]-2,5-diphenyltetrazolium bromide (MTT) assay. Firstly, the compounds were screened at two doses (50 and 10 µM) and after 48 h of treatment. The results are summarized in Figure 4 and are presented as percentages of growth inhibition related to control.

[7] = system: MCF-7 cells (breast adenocarcinoma); experiment: MTT cell viability assay, MCF-7; assay type: cell-based, human; conditions: for IC50 / viability at 10 µM / viability at 50 µM: Homo sapiens, MCF7, 48 h, MTT; for IC50: mean ± SD, read-out: IC50 MCF-7 (breast); for viability at 10 µM: MCF-7, 10 µM; for viability at 10 µM / viability at 50 µM: read-out: cell viability, percentage of live cells; for viability at 50 µM: MCF-7, 50 µM; for SI (selectivity index) breast: IC50 (184B5)/IC50 (MCF-7)
Experimental: as §1, §2, §3, §4

[8] = system: MCF-7, HTB-54, HT-29 and HCT-116 cancer cell lines; experiment: MTT assay, panel of four cancer cell lines; assay type: cell-based; conditions: MCF-7, HTB-54, HT-29, HCT-116, read-out: IC50 against the four cancer cell lines tested (all the cell lines)
Experimental: as §2, §3
Those derivatives that reduced the growth of the cell lines below 50% at 10 µM in at least one cell line were selected for being evaluated at five concentrations between […] and 100 µM. Ten compounds (1d, 1e, 2a, 2d, 3a, 6a, 6b, 6c, 6d, and 6e) passed this threshold and four of them (1e, 6c, 6d and 6e) in all three cancer cell lines. The data are expressed as IC50 (mean ± SD) in a panel of four cancer cell lines (MCF-7, HTB-54, HT-29, and HCT-116), and are shown in Table 1. Cisplatin was used as a standard drug. […] Additionally, reported IC50 values of a well-known antitumor selenocompound, i.e., sodium selenite (Na2SeO3), were used as reference for comparision with the selected selenoureas.

[9] = system: HTB-54 cells (lung adenocarcinoma); experiment: MTT cell viability assay, HTB-54; assay type: cell-based, human; conditions: for IC50 / viability at 10 µM / viability at 50 µM: Homo sapiens, 48 h, MTT; for IC50: HTB-54, mean ± SD, read-out: IC50 HTB-54 (lung); for viability at 10 µM: HTB-54, 10 µM; for viability at 10 µM / viability at 50 µM: read-out: cell viability, percentage of live cells; for viability at 50 µM: HTB-54, 50 µM; for SI (selectivity index) lung: IC50 (BEAS-2B)/IC50 (HTB-54)
Experimental: as §1, §2, §3, §4

[10] = DPPH radical scavenging assay; conditions: 0.03 mg/mL, time-point 0 min
Experimental: (§5) From all the methods available for the prediction of the antioxidant properties, DPPH^● and ABTS^●+ assays were chosen according to their simplicity, accessibility, and effectiveness for a fast prediction of radical scavenging activities in vitro. The radical scavenging capacity of the novel selenoureas was determined by DPPH^● and ABTS^●^+ assays. Measurements were recorded on a BioTeck PowerWave XS spectrophotometer (BioTeck Instruments, Winooski (VT), USA) and the data were collected using KCJunior software (BioTeck Instruments, Winooski (VT), USA).
A DPPH assay was performed, as described by Svinyarov. Stock solutions of 1 mg/mL were initially prepared for each selenourea in methanol and this solution was used for the preparation of the different concentrations employed in the assay. Ascorbic acid (Asc) was used as positive control due to the literature reports that this derivative is a potent antioxidant and radical scavenger. A volume of 100 µL from a previously prepared stock solution (preserved in dark and daily prepared) of DPPH (100 µM) in methanol were added to 100 µL of the methanolic selenoureas solutions prepared previously, and the antioxidant activity these compounds was assessed by its ability to decolorize DPPH● radical (purple color in methanol) to DPPHH (colorless). Thus, radical scavenging activity was estimated by the decrease in the absorbance at 517 nm. Determinations were recorded at different time-points. All the measurements were carried out in triplicate. Results are expressed as the percentage of the radicals scavenged, calculated using the following formula:(1) % DPPH radical scavenging=Acontrol − Asample/Acontrol × 100 where Acontrol refers to the absorbance of the negative control and Asample refers to the absorbance of the tested compounds. Results are expressed as percentage of DPPH radical scavenging ± SD.
In order to determine the radical scavenging of these newly synthesized selenourea derivatives, the DPPH assay was firstly employed. Measurements were performed at four different concentrations ranging from 0.0003 to 0.03 mg/mL, and collected at time-points between 0 min and 120 min (Figures S81–S100). Results are presented as the percentage of inhibition for DPPH radical scavenging activity.

[11] = system: BEAS-2B cells (lung non-malignant derived cell line); experiment: MTT cell viability assay, BEAS-2B; assay type: cell-based; conditions: Homo sapiens, 48 h, mean ± SD
Experimental: as §1, §2, §3

[12] = ABTS radical scavenging assay; conditions: 0.003 mg/mL, 60 min
Experimental: as §5
As well as DPPH, ABTS radical scavenging assay is a colorimetric method. ABTS (2,2′-azino-bis(3-ethylbenzothiazoline-6-sulfonic acid) was dissolved in deionized water at 1 mg/mL and oxidized to ABTS^●+ with potassium persulfate (2.45 mM final concentration). This oxidation process is not instantaneous, and the reaction mixture was kept in the dark overnight at room temperature. After ABTS^●+ radical was generated, the ABTS^●+ solution was diluted with 50% ethanol until an absorbance of 0.70 ± 0.02 at 734 nm for measurements was achieved. Stock solution of 1 mg/mL in absolute ethanol was prepared for each selenourea, and different dilutions were prepared to reach the final concentration, when 20 µL of this solution were added to 180 µL of the diluted ABTS^●+. The absorbance at 734 nm was recorded using 50% ethanol as blank. Trolox and Asc were used as positive controls. All determinations were carried out in triplicate. Same time intervals as in the DPPH assay were also measured. The ability to scavenge ABTS^●+ was calculated using the following formula:(2) % ABTS radical scavenging=Acontrol − Asample/Acontrol × 100 where Acontrol refers to the absorbance of the negative control and Asample refers to the absorbance of the tested compounds. The results are expressed as percentage of ABTS radical scavenging ± SD.
In order to confirm the antioxidant activity of the selenoureas, we performed an additional ABTS (2,2′-azino-bis(3-ethylbenzothiazoline-6-sulfonic acid) radical scavenging assay. Following the results obtained in the DPPH assay, this experiment was performed at 0.03 and 0.003 mg/mL. Measurements were recorded after 0′, 6′ and 60′ of incubation with ABTS. For comparison purposes, Trolox and ascorbic acid were used as references. The remarkable results are summarized in Figure 3.

SMILES	IC50 ([1]; Homo sapiens, HCT-116)	IC50 [5]	IC50 [6]	viability at 10 µM [6]	viability at 50 µM [6]	IC50 [7]	viability at 10 µM [7]	viability at 50 µM [7]	SI (selectivity index) breast [7]	melting point	IC50 [8]	IC50 [9]	viability at 10 µM [9]	viability at 50 µM [9]	SI (selectivity index) lung [9]	DPPH radical scavenging kinetics [10]	IC50 [11]	ABTS radical scavenging activity compared with Trolox [12]	also measured
N.N.[Cl][Pt][Cl] [Cisplatin]	–	–	–	–	–	–	–	–	–	–	–	–	–	–	–	–	–	–	IC50 [1]: 2.18 ± 1.58 µM; IC50 ([2]; reference drug, literature value, read-out: IC50 MCF-7 (breast)): 15.2 ± 1.04 µM; IC50 [3]: 13.7 ± 0.83 µM; IC50 [4]: 14.2 ± 0.73 µM
N#Cc1ccc(NC(=[Se])NCc2ccco2)cc1 [Compound 1e]	9.14 ± 1.14 µM	8.09 ± 1.21 µM	5.89 ± 1.32 µM	36.2%	28.5%	9.96 ± 1.45 µM	48.8%	23.4%	0.81	128 °C	< 10 µM	9.79 ± 0.07 µM	35.7%	9.3%	0.61	reaching the maximum activity at time-point 0′	6.01 ± 0.94 µM	–	–
O=[Se](O)O [sodium selenite]	–	–	–	–	–	–	–	–	–	–	–	–	–	–	–	–	–	–	IC50 ([2]; after 72 h of treatment, read-out: IC50 in MCF-7 cells): 17 µM
N#Cc1ccc(NC(=[Se])NC23CC4CC(CC(C4)C2)C3)cc1 [Compound 6e, N´-Adamanty-N-(4-cyanophenyl)selenourea]	5.43 ± 0.86 µM	7.69 ± 0.31 µM	4.18 ± 0.46 µM	18.9%	3.6%	5.47 ± 3.91 µM	44.4%	5.7%	1.41	–	< 10 µM	6.09 ± 0.75 µM	34%	0.3%	0.39	reaching the maximum activity at time-point 0′	2.36 ± 0.39 µM	–	–
Clc1ccc(NC(=[Se])NC23CC4CC(CC(C4)C2)C3)cc1 [Compound 6d, N´-adamantyl-N-(4-chlorophenyl)selenourea]	6.95 ± 0.65 µM	16 ± 2.74 µM	8.04 ± 2.17 µM	45.9%	23.7%	7.19 ± 1.12 µM	36.6%	17.2%	2.22	177 °C	< 10 µM	6.56 ± 0.99 µM	22.9%	4.4%	1.16	–	7.59 ± 0.53 µM	significant lower radical scavenging activity than Trolox	–
Cc1ccc(NC(=[Se])NC23CC4CC(CC(C4)C2)C3)cc1 [Compound 6b]	6.29 ± 0.76 µM	12.2 ± 2.42 µM	5.67 ± 4.67 µM	51.4%	46.8%	5.52 ± 1.61 µM	40%	9.2%	2.21	169 °C	< 10 µM	9.01 ± 2.6 µM	44.2%	26.1%	0.83	–	7.56 ± 0.19 µM	significant lower radical scavenging activity than Trolox	–
